Here are results for ten compounds from patent US20240009651A1, “PRE-COATINGS FOR BIOCOMPATIBLE SOLID PHASE MICROEXTRACTION DEVICES” (SIGMA-ALDRICH CO. LLC, priority 2020, published 2024).

As a reminder, the pKa is the pH at which an ionisable group is half protonated. What is called fraction unbound is free concentration divided by total concentration. Lower therefore signals extensive binding. A word on the Log P: it is a log measure of how a compound divides between an organic and an aqueous phase.

The conditions of series [1]: cited from earlier work; for Physiological Charge: physiological pH.
In a further series the test system is Human plasma. Put plainly: in vitro. As for the experimental part:
(§1) Protein Binding by BioSPME was studied. A 96-pin device was prepared with an […] pre-coating and PAN/C18 BioSPME coating. Human plasma and buffer were spiked at a therapeutically relevant concentration and incubated for one hour at 37° C. while shaking at 300 rpm. After the incubation, 200 μL plasma and buffer were loaded into separate columns on to the extraction well plate (n=8). The determination of the protein binding was determined by automated robotic method using the BioSPME C18 96-pin tool. Briefly, the pin tool is conditioned for twenty minutes static in isopropanol, then it is transferred into a new well plate for 10 seconds in water (wash step). This is followed by the extraction step. The pin tool is transferred into the preloaded extraction plate described earlier. Here, the pin tool extracts the analytes while shaking at 1200-1250 rpm at 37° C. for 15 minutes. The pin tools return to the water solution for a 60 seconds wash and finally transferred into a desorption plate. The desorption solution is a 80:20 methanol:water and desorbs for 20 minutes under static conditions. Samples were analyzed using methods described in Tables 5 and 6.
(§2) The extraction plates used in this study included both plastic and glass-coated plates. The choice of the plate depended on the compound properties and how well the compound behaved in buffer solution.
(§3) Determination of % Free Fraction (Fu) by BioSPME
(§4) BioSPME method determines the free concentration of analyte in plasma by comparing it with the extraction of the analyte from buffer samples where 100% of the analyte is considered to be free of protein biding.
(§5) The percent free or percent unbound is determined in Eq. 1:
(§6) where concentration free represents the unbound concentration of the analyte in the matrix in this case plasma, and concentration total represents the total concentration of analyte. The amount extracted is independent of units and can be applied using preferred quantities (e.g. nanograms or moles) Mfree, and extraction volume of plasma, Vplasma. The concentration of analyte in the desorption solution is quantified by an external calibration curve, and if the desorption volume is equal to the plasma and buffer extraction volumes, the concentration from desorption will be equal to the extracted concentration as shown in Eq 2.
(§7) The bound fraction, FB, can be determined from the extracted concentrations as shown in Eq 6.
(§8) In cases where depletion of compounds from plasma was pronounced upon BioSPME extraction (extraction exceeded 5% of total spiked analyte), a correction to the calculated Bound Fraction was required as described below:
(§9) where B and P, represent the respective amounts extracted from buffer, B, and plasma, P. B^0 represents the concentration the samples were spiked originally.

Another series can be described thus: in vitro. To be noted: human. As for the experimental part: as §1, §2, §3, §4, §5, §6, §7, §8, §9
The nature of series [2]: Non-specific binding to plastic extraction plates. Conditions: plastic versus glass-coated 96-well extraction plates, buffer solution. Format: in vitro ADME.
Source text: as §2

Setting [3] is: human plasma, spiked 100 ng/mL, 200 μL sample, 37° C., n = 8.

Regarding `O=C1CC2(CCCC2)CC(=O)N1CCCCN1CCN(c2ncccn2)CC1` [Buspirone], the pKa in series [1] is recorded as 4.12.

Turning to `NC(=O)N1c2ccccc2C=Cc2ccccc21` [Carbamazepine], in series [1], the “Physiological Charge” value is reported as 0. Moreover, in the series on Human plasma (15 min, 100 ng/mL), the “Ave. Buffer Extracted” value amounted to 34.7 ng/mL. The “Ave. Plasma Extracted” value with Human plasma (human, 15 min, 100 ng/mL) is 8.2 ng/mL. The “Ave. FB(%) (bound fraction)” value in the series with Human plasma (human, 1 h, 100 ng/mL) is reported as 76.4%. This compound came in with a fraction unbound at 1 h, 100 ng/mL in “in vitro” (plasma) of 0.236.

On to `CC[C@H]1OC(=O)[C@H](C)[C@@H](O[C@H]2C[C@@](C)(OC)[C@@H](O)[C@H](C)O2)[C@H](C)[C@@H](O[C@@H]2O[C@H](C)C[C@H](N(C)C)[C@H]2O)[C@](C)(O)C[C@@H](C)C(=O)[C@H](C)[C@@H](O)[C@]1(C)O` [Erythromycin], for which the “Ave. Buffer Extracted” value with Human plasma (15 min, 100 ng/mL) was found to be 35.0 ng/mL. The “Ave. Plasma Extracted” value with Human plasma (human, 15 min, 100 ng/mL) is 6.5 ng/mL. Also, in the series with Human plasma (human, 1 h, 100 ng/mL), the “Ave. FB(%) (bound fraction)” value is 81.8%. The fraction unbound at 1 h, 100 ng/mL in the series “in vitro” (plasma) was 0.182.

Consider `CN(C)CCCN1c2ccccc2CCc2ccccc21` [Imipramine], for which the “Physiological Charge” value in series [1] is listed as 1. Besides, the “Ave. Buffer Extracted” value in the series on Human plasma (15 min, 100 ng/mL) is given as 65.4 ng/mL. In addition, the “Ave. FB(%) (bound fraction)” value with Human plasma (setting [3]) stood at 92.6%. In addition, the “Ave. Plasma Extracted” value with Human plasma (human, 15 min, 100 ng/mL) turned out to be 12.2 ng/mL. This compound also showed a fraction unbound at 1 h, 100 ng/mL in “in vitro” (human plasma) of 0.074. Further, in series [2], the “non-specific binding to plastic” value is reported as “exhibit non-specific biding to plastic”.

Take `CC(=O)N1CCN(c2ccc(OCC3COC(Cn4ccnc4)(c4ccc(Cl)cc4Cl)O3)cc2)CC1` (centres unmarked) [Ketoconazole]: in series [1], the pKa is recorded as 6.75 and the “Physiological Charge” value is given as 0. Moreover, in the series on Human plasma (15 min, 500 ng/mL), the “Ave. Buffer Extracted” value worked out at 282.4 ng/mL. Also, in the series with Human plasma (human plasma, spiked 500 ng/mL, 200 μL sample, 37° C., n = 8), the “Ave. FB(%) (bound fraction)” value is given as 96.8%. The “Ave. Plasma Extracted” value in the series on Human plasma (human, 15 min, 500 ng/mL) is given as 20.0 ng/mL. In “in vitro” (human plasma), this compound yielded a fraction unbound at 1 h, 500 ng/mL of 0.032. The “non-specific binding to plastic” value in series [2] is “exhibit non-specific biding to plastic”.

Regarding `CCn1cc(C(=O)O)c(=O)c2ccc(C)nc21` [Nalidixic Acid], the “Log P” value in series [1] is reported as 1.59. Further, the “Ave. Buffer Extracted” value in the series with Human plasma (15 min, 2000 ng/mL) is given as 16.35 ng/mL. Also, in the series with Human plasma (human, 15 min, 2000 ng/mL), the “Ave. Plasma Extracted” value worked out at 0.5 ng/mL. Also, the “Ave. FB(%) (bound fraction)” value with Human plasma (human, 1 h, 2000 ng/mL) was determined as 97.0%. This compound had a fraction unbound at 1 h, 2000 ng/mL in “in vitro” (plasma) of 0.03.

For `CC(C)NCC(O)COc1cccc2ccccc12` (centres unmarked) [Propranolol], in series [1], the “Physiological Charge” value is 1. The “Ave. Buffer Extracted” value with Human plasma (15 min, 100 ng/mL) amounted to 18.3 ng/mL. For the same compound, the “Ave. Plasma Extracted” value with Human plasma (human, 15 min, 100 ng/mL) was 1.7 ng/mL. Besides, the “Ave. FB(%) (bound fraction)” value with Human plasma (human, 1 h, 100 ng/mL) is 90.5%. In the series “in vitro” (plasma), the fraction unbound at 1 h, 100 ng/mL worked out at 0.095.

On to `CC(=O)CC(c1ccccc1)c1c(O)c2ccccc2oc1=O` (centres unmarked) [Warfarin], for which the “Ave. Buffer Extracted” value in the series with Human plasma (15 min, 2500 ng/mL) is given as 10.0 ng/mL. Further, the “Ave. Plasma Extracted” value in the series with Human plasma (human, 15 min, 2500 ng/mL) is on record as below 0.1 ng/mL. For the same compound, the “Ave. FB(%) (bound fraction)” value in the series with Human plasma (human, 1 h, 2500 ng/mL) was 99.8%. Besides, the fraction unbound at 1 h, 2500 ng/mL in the series “in vitro” (plasma) is 0.002.

In the case of `Cc1ccc(-c2nc3ccc(C)cn3c2CC(=O)N(C)C)cc1` [Zolpidem], in series [1], the “Physiological Charge” value is given as 0. The “Ave. Buffer Extracted” value in the series on Human plasma (buffer, spiked 100 ng/mL, 200 μL sample, n = 8) is 68.4 ng/mL. Besides, the “Ave. FB(%) (bound fraction)” value in the series with Human plasma (setting [3]) was 96.9%. Further, in the series on Human plasma (human plasma, spiked 100 ng/mL, 200 μL sample, n = 8), the “Ave. Plasma Extracted” value amounted to 2.1 ng/mL. The fraction unbound at 1 h, 100 ng/mL in “in vitro” (plasma) amounted to 0.031.

Take `C[C@]12C=CC(=O)C=C1CC[C@@H]1[C@@H]2[C@@H](O)C[C@@]2(C)[C@H]1CC[C@]2(O)C(=O)CO` [prednisolone]: the “Physiological Charge” value in series [1] is recorded as 0. Also, in the series on Human plasma (15 min, 100 ng/mL), the “Ave. Buffer Extracted” value is on record as 62.1 ng/mL. Also, the “Ave. Plasma Extracted” value in the series with Human plasma (human, 15 min, 100 ng/mL) is 13.5 ng/mL. The “Ave. FB(%) (bound fraction)” value with Human plasma (human, 1 h, 100 ng/mL) amounted to 78.2%. Further, the fraction unbound at 1 h, 100 ng/mL in the series “in vitro” (plasma) came to 0.218.
